Experimental data: patent publication US20150111262A1, “METHODS AND MATERIALS FOR PRODUCING FIVE CARBON BUILDING BLOCKS FROM PROLINE” (INVISTA North America S.á r.l., priority 2013, published 2015)

What was measured:
gene product of ygjG = gene product of ygjG (Escherichia coli, UniProt P42588); details: Samsonova et al., BMC Microbiology, 2003; cited from earlier work
[1] = test system: ω-transaminase of SEQ ID NO: 7; assay: ω-transaminase activity, 5-aminopentanol to 5-oxopentanol; format: biochemical, Chromobacterium violaceum
Method: (§1) A nucleotide sequence encoding an N-terminal His-tag was added to the Chromobacterium violaceum, Pseudomonas aeruginosa, Pseudomonas syringae, Rhodobacter sphaeroides, Escherichia coli and Vibrio Fluvialis genes encoding the ω-transaminases of SEQ ID NOs: 7-12 respectively (see FIG. 7) such that N-terminal HIS tagged ω-transaminases could be produced. The modified genes were cloned into a pET21a expression vector under the T7 promoter. Each expression vector was transformed into a BL21[DE3] E. coli host. Each resulting recombinant E. coli strain were cultivated at 37° C. in a 250 mL shake flask culture containing 50 mL LB media and antibiotic selection pressure, with shaking at 230 rpm. Each culture was induced overnight at 16° C. using 1 mM IPTG.
(§2) The pellet from each induced shake flask culture was harvested via centrifugation. Each pellet was resuspended and lysed via sonication. The cell debris was separated from the supernatant via centrifugation and the cell free extract was used immediately in enzyme activity assays.
(§3) Enzyme activity assays in the reverse direction (i.e., 5-aminopentanol to 5-oxopentanol) were performed in a buffer composed of a final concentration of 50 mM HEPES buffer (pH=7.5), 10 mM 5-aminopentanol, 10 mM pyruvate, and 100 μM pyridoxyl 5′ phosphate. […] The formation of L-alanine was quantified via RP-HPLC.

[2] = test system: ω-transaminase of SEQ ID NO: 8; assay: as above; format: biochemical, Pseudomonas aeruginosa
Method: as §1, §2, §3

[3] = test system: ω-transaminase of SEQ ID NO: 9; assay: as above; format: biochemical, Pseudomonas syringae
Method: as §1, §2, §3

[4] = test system: ω-transaminase of SEQ ID NO: 10; assay: as above; format: biochemical, Rhodobacter sphaeroides
Method: as §1, §2, §3

[5] = biological target: T1, ω-transaminase of SEQ ID NO: 11 (Escherichia coli, UniProt P42588); assay: as above; format: biochemical
T1 construct: His-tag (N); made in house; host or cells: E. coli BL21[DE3], pET21a; cell free extract used
T1 sequence (P42588 whole entry): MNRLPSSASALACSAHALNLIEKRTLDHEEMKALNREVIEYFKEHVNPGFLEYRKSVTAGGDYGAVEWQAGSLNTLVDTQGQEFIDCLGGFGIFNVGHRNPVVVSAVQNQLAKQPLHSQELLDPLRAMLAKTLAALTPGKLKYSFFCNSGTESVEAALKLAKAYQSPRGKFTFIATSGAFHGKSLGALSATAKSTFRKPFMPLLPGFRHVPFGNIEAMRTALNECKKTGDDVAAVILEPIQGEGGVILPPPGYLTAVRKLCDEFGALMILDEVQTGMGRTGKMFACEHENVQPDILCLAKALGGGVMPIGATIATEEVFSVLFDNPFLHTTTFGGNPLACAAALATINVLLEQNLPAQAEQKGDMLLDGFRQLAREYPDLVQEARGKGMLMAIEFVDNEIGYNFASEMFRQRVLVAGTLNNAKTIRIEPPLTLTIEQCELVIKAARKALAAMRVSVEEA
Method: as §1, §2, §3

[6] = test system: ω-transaminase of SEQ ID NO: 12; assay: as above; format: biochemical, Vibrio Fluvialis
Method: as §1, §2, §3

[7] = test system: ω-transaminase of SEQ ID NO: 7; assay: ω-transaminase activity, cadaverine to 5-aminopentanal; format: biochemical, Chromobacterium violaceum
Method: as §1, with “A” for “A nucleotide”, “syringae and” for “syringae, Rhodobacter sphaeroides,”, “coli” for “coli and Vibrio Fluvialis”, “7, 8, 9 and 11,” for “7-12”
as §2
as §3, with “cadaverine” for “5-aminopentanol”, “5-aminopentanal)” for “5-oxopentanol)”, “cadaverine,” for “5-aminopentanol,”

[8] = test system: ω-transaminase of SEQ ID NO: 8; assay: as above; format: biochemical, Pseudomonas aeruginosa
Method: as §1, with “A” for “A nucleotide”, “syringae and” for “syringae, Rhodobacter sphaeroides,”, “coli” for “coli and Vibrio Fluvialis”, “7, 8, 9 and 11,” for “7-12”
as §2
as §3, with “cadaverine” for “5-aminopentanol”, “5-aminopentanal)” for “5-oxopentanol)”, “cadaverine,” for “5-aminopentanol,”

[9] = test system: ω-transaminase of SEQ ID NO: 9; assay: as above; format: biochemical, Pseudomonas syringae
Method: as §1, with “A” for “A nucleotide”, “syringae and” for “syringae, Rhodobacter sphaeroides,”, “coli” for “coli and Vibrio Fluvialis”, “7, 8, 9 and 11,” for “7-12”
as §2
as §3, with “cadaverine” for “5-aminopentanol”, “5-aminopentanal)” for “5-oxopentanol)”, “cadaverine,” for “5-aminopentanol,”

[10] = biological target: T1, ω-transaminase of SEQ ID NO: 11; assay: as above; format: biochemical
Method: as §1, with “A” for “A nucleotide”, “syringae and” for “syringae, Rhodobacter sphaeroides,”, “coli” for “coli and Vibrio Fluvialis”, “7, 8, 9 and 11,” for “7-12”
as §2
as §3, with “cadaverine” for “5-aminopentanol”, “5-aminopentanal)” for “5-oxopentanol)”, “cadaverine,” for “5-aminopentanol,”

[11] = test system: ω-transaminase of SEQ ID NO: 7; assay: ω-transaminase activity, 5-aminopentanoate to glutarate semialdehyde (forward direction); format: biochemical, Chromobacterium violaceum
Method: (§4) A sequence encoding an N-terminal His-tag was added to the genes from Chromobacterium violaceum and Pseudomonas syringae encoding the ω-transaminases of SEQ ID NOs: 7 and 9, respectively (see FIG. 7) such that N-terminal HIS tagged ω-transaminases could be produced. Each of the resulting modified genes was cloned into a pET21a expression vector under control of the T7 promoter and each expression vector was transformed into a BL21[DE3] E. coli host. The resulting recombinant E. coli strains were cultivated at 37° C. in a 250 mL shake flask culture containing 50 mL LB media and antibiotic selection pressure, with shaking at 230 rpm. Each culture was induced overnight at 16° C. using 1 mM IPTG.
as §2
Enzyme activity assays in the forward direction (i.e., 5-aminopentanoate to glutarate semialdehyde) were performed in a buffer composed of a final concentration of 50 mM HEPES buffer (pH=7.5), 10 mM 5-aminopentanoate, 10 mM pyruvate and 100 μM pyridoxyl 5′ phosphate. […] The formation of L-alanine from pyruvate was quantified via RP-HPLC.

[12] = test system: ω-transaminase of SEQ ID NO: 9; assay: ω-transaminase activity, glutarate semialdehyde to 5-aminopentanoate (reverse direction); format: biochemical, Pseudomonas syringae; details: SEQ ID 9
Method: as §4, §2
Enzyme activity in the reverse direction (i.e., glutarate semialdehyde to 5-aminopentanoate) were performed in a buffer composed of a final concentration of 50 mM HEPES buffer (pH=7.5), 10 mM glutarate semialdehyde, 10 mM L-alanine and 100 μM pyridoxyl 5′ phosphate. […] The formation of pyruvate was quantified via RP-HPLC.

gene product of ygjG, sequence (P42588 whole entry): as above

SMILES: NCCCCNCCCN [spermidine]
- acceptance as diamine substrate (gene product of ygjG): accepts

SMILES: NCCCCCO [5-aminopentanol]
- acceptance as substrate (conversion of pyruvate to L-alanine) vs empty vector control ([1]; SEQ ID NO 7, 10 mM 5-aminopentanol, 10 mM pyruvate, pH 7.5, 25° C., 4 h, FIG. 13): accepted 5-aminopentanol as substrate
- acceptance as substrate (conversion of pyruvate to L-alanine) vs empty vector control ([2]; SEQ ID NO 8, 10 mM 5-aminopentanol, 10 mM pyruvate, pH 7.5, 25° C., 4 h, FIG. 13): accepted 5-aminopentanol as substrate
- acceptance as substrate (conversion of pyruvate to L-alanine) vs empty vector control ([3]; SEQ ID NO 9, 10 mM 5-aminopentanol, 10 mM pyruvate, pH 7.5, 25° C., 4 h, FIG. 13): accepted 5-aminopentanol as substrate
- acceptance as substrate (conversion of pyruvate to L-alanine) vs empty vector control ([4]; SEQ ID NO 10, 10 mM 5-aminopentanol, 10 mM pyruvate, pH 7.5, 25° C., 4 h, FIG. 13): accepted 5-aminopentanol as substrate
- acceptance as substrate (conversion of pyruvate to L-alanine) vs empty vector control ([5]; SEQ ID NO 11, 10 mM 5-aminopentanol, 10 mM pyruvate, pH 7.5, 25° C., 4 h, FIG. 13): accepted 5-aminopentanol as substrate
- acceptance as substrate (conversion of pyruvate to L-alanine) vs empty vector control ([6]; SEQ ID NO 12, 10 mM 5-aminopentanol, 10 mM pyruvate, pH 7.5, 25° C., 4 h, FIG. 13): accepted 5-aminopentanol as substrate

SMILES: O=CCCCCO [5-oxopentanol]
- acceptance as substrate, forming 5-aminopentanol, concluded from reversibility of the ω-transaminase activity ([1]; SEQ ID 7): accept 5-oxopentanol as substrate
- acceptance as substrate, forming 5-aminopentanol, concluded from reversibility of the ω-transaminase activity ([2]; SEQ ID 8): accept 5-oxopentanol as substrate
- acceptance as substrate, forming 5-aminopentanol, concluded from reversibility of the ω-transaminase activity ([3]; SEQ ID 9): accept 5-oxopentanol as substrate
- acceptance as substrate, forming 5-aminopentanol, concluded from reversibility of the ω-transaminase activity ([4]; SEQ ID 10): accept 5-oxopentanol as substrate
- acceptance as substrate, forming 5-aminopentanol, concluded from reversibility of the ω-transaminase activity ([5]; SEQ ID 11): accept 5-oxopentanol as substrate
- acceptance as substrate, forming 5-aminopentanol, concluded from reversibility of the ω-transaminase activity ([6]; SEQ ID 12): accept 5-oxopentanol as substrate

SMILES: NCCCCCN [cadaverine]
- acceptance as substrate (conversion of pyruvate to L-alanine) vs empty vector control ([7]; SEQ ID NO 7, 10 mM cadaverine, 10 mM pyruvate, pH 7.5, 25° C., 4 h, FIG. 14): accepted cadaverine as substrate
- acceptance as substrate (conversion of pyruvate to L-alanine) vs empty vector control ([8]; SEQ ID NO 8, 10 mM cadaverine, 10 mM pyruvate, pH 7.5, 25° C., 4 h, FIG. 14): accepted cadaverine as substrate
- acceptance as substrate (conversion of pyruvate to L-alanine) vs empty vector control ([9]; SEQ ID NO 9, 10 mM cadaverine, 10 mM pyruvate, pH 7.5, 25° C., 4 h, FIG. 14): accepted cadaverine as substrate
- acceptance as substrate (conversion of pyruvate to L-alanine) vs empty vector control ([10]; SEQ ID NO 11, 10 mM cadaverine, 10 mM pyruvate, pH 7.5, 25° C., 4 h, FIG. 14): accepted cadaverine as substrate
- acceptance as diamine substrate (gene product of ygjG): accepts

SMILES: NCCCCC(=O)O [5-aminopentanoate]
- acceptance as substrate, forming 5-oxopentanoate, concluded from reversibility of the ω-transaminase activity ([11]; SEQ ID 7): accept 5-aminopentanoate as substrate
- acceptance as substrate (conversion of pyruvate to L-alanine) vs empty vector control ([11]; cell free extract, 10 mM 5-aminopentanoate, 10 mM pyruvate, pH 7.5, 25° C., 4 h, RP-HPLC, FIG. 8): accepted 5-aminopentanoate as substrate
- acceptance as substrate, forming 5-oxopentanoate, concluded from reversibility of the ω-transaminase activity [12]: accept 5-aminopentanoate as substrate

SMILES: NCCCCC=O [5-aminopentanal]
- acceptance as substrate, forming cadaverine, concluded from reversibility of the ω-transaminase activity ([7]; SEQ ID 7): accept 5-aminopentanal as substrate
- acceptance as substrate, forming cadaverine, concluded from reversibility of the ω-transaminase activity ([8]; SEQ ID 8): accept 5-aminopentanal as substrate
- acceptance as substrate, forming cadaverine, concluded from reversibility of the ω-transaminase activity ([9]; SEQ ID 9): accept 5-aminopentanal as substrate
- acceptance as substrate, forming cadaverine, concluded from reversibility of the ω-transaminase activity ([10]; SEQ ID 11): accept 5-aminopentanal as substrate

SMILES: NCCCCN [putrescine]
- acceptance as diamine substrate (gene product of ygjG): accepts
